Assay results as given in patent US8501237B2, “Formulations of water insoluble or poorly water soluble drugs in lipidated glycosaminoglycan particles and their use for diagnostics and therapy” (Tel-Aviv University Future Technology Development L.P., priority 2004, dated 2013).
Like-named read-outs stand apart in the source and are kept apart here.

Assays:
C-26 cells = assay: Cytotoxicity in vitro (MTT or SRB), C-26; assay type: cell-based; details: Mus musculus
Procedure: (§1) Cytotoxicity of paclitaxel and of gagomer-encapsulated paclitaxel was evaluated over a matrix of drug-gagomer formulations (see Examples 1, 2 and 3), cell lines and treatment protocols, for the drug concentration range spanning from 1 nM to 100 μM.
(§2) Twenty four hours prior to an experiment, cells of the desired line were seeded onto 96-well multiwell culture plates at densities in the range of 5×10^3 cells/well. The experiments were initiated on sub-confluent monolayers. Two protocols were used:
(§3) (I) Short protocol. The cells were incubated with the treatment media for 4 hours, at the end of which the treatment media was aspirated, the cells washed and incubated for 44 hours in drug-free serum-supplemented cell growth media. Termination was 48 hours from start.
(§4) (II) Long protocol: the cells were incubated in the treatment media for 48 hours. Upon termination, in either protocol, cell viability was determined in each well using either the MTT or the SRB assay method.
(§5) The rationale for the two protocols, the long and the short, is as follows: The long protocol is the traditional one used for in vitro comparisons of cytotoxicity among different drug formulations. The cells are incubated with the treatment formulations for periods usually within the 24-72 hour time span, and all formulations are incubated for the same time. […]

D122 cells = assay: Cytotoxicity in vitro (MTT or SRB), D122; assay type: cell-based; details: Mus musculus
Procedure: as §1, §2, §3, §4, §5

B16F10.9 cells = assay: Cytotoxicity in vitro (MTT or SRB), B16F10.9; assay type: cell-based, mouse
Procedure: as §1, §2, §3, §4, §5

PANC-1 cells = assay: Cytotoxicity in vitro (MTT or SRB), PANC-1; assay type: cell-based; details: Homo sapiens
Procedure: as §1, §2, §3, §4, §5

B16F10.9 cultures = assay: Cytotoxicity before and after sterilization (autoclaving) in B16F10.9 cultures; assay type: cell-based; details: Mus musculus
Procedure: Aqueous suspensions of TX-GAG particles were prepared according to the scheme of FIG. 7, up to and including step 5. Aqueous suspensions of paclitaxel alone (i.e., free paclitaxel) were also prepared. Samples were set aside, from both the TX-GAG and the free paclitaxel, and the remainder of each system was subjected to the following sterilization process: 12 minutes of autoclaving at 120° C. A critical question of whether this sterilization process is feasible for the TX-GAG formulations, is retention of drug activity. Therefore, the original samples set aside prior to the sterilization process, as well as the samples that underwent the process, were tested for their cytotoxicity, in B16F10.9 cultures, as described in Example 7.

SNU-251 cells = assay: Cytotoxicity in vitro (MTT or SRB), SNU-251; assay type: cell-based; details: Homo sapiens
Procedure: as §1, §2, §3, §4, §5

[1] = 4 hours treatment, then 44 hours drug-free media, read-out: IC50 short protocol
[2] = 48 hours incubation with treatment media, read-out: IC50 long protocol

CC(=O)O[C@H]1C(=O)[C@@]2(C)[C@H]([C@H](OC(=O)c3ccccc3)[C@]3(O)C[C@H](OC(=O)[C@H](O)[C@@H](NC(=O)c4ccccc4)c4ccccc4)C(C)=C1C3(C)C)[C@]1(OC(C)=O)CO[C@@H]1C[C@@H]2O [Free Paclitaxel, paclitaxel]
IC50 (C-26 cells; C26, 4 hours treatment, then 44 hours drug-free media, read-out: IC50 short protocol): 3 µM
IC50 (C-26 cells; C26, 48 hours incubation with treatment media, read-out: IC50 long protocol): 3.5 µM
IC50 (D122 cells; [1]): 900 nM
IC50 (D122 cells; [2]): 250 nM
IC50 (B16F10.9 cells; Mus musculus, B16F10.9, ethanol as the lipid solvent, 4 hours treatment, then 44 hours drug-free media (Table 6), read-out: IC50 short protocol): 1800 nM
cytotoxic activity after heating of ethanolic solutions (B16F10.9 cells; ethanolic paclitaxel solutions heated at 40-70° C., same cytotoxicity assay): did not impair the drug's cytotoxic activity
IC50 (PANC-1 cells; [1]): 300 nM
IC50 (PANC-1 cells; [2]): 20 nM
IC50 (B16F10.9 cultures; after sterilization: 12 minutes of autoclaving at 120° C. (FIG. 10)): ~300 nM
IC50 (B16F10.9 cultures; before sterilization (FIG. 10)): ~300 nM
IC50 (SNU-251 cells; [1]): 600 nM
IC50 (SNU-251 cells; [2]): 250 nM
